The values below come from patent publication US10626349B2, “Cleavable surfactants” (PROMEGA CORPORATION, priority 2007, dated 2020).

Data set [1] addresses T1, Bacteriorhodopsin digested with chymotrypsin (Halobacterium salinarum, UniProt P02945).
T1 sequence (P02945 14-261 limits assumed): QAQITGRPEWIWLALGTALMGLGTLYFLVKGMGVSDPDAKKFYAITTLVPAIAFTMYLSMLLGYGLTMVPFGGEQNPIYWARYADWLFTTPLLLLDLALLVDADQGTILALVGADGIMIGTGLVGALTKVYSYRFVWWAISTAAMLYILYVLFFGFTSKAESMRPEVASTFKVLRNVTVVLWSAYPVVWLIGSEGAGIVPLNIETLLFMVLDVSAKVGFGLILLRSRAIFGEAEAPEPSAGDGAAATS
Put plainly: Bacteriorhodopsin/Chymotrypsin digest, HPLC peak area versus RapiGest control. The class given is biochemical. The conditions noted are these: at 0.1% surfactant, BR boiled with surfactant, chymotrypsin 10:1.

Data set [2] is described as follows: Solubility of the surfactant.
A short description of data set [3]: Hydrolytic stability in 50 mM ammonium bicarbonate (reverse-phase HPLC). Set-up: key: >>: compound 100% stable over course of experiment. The class given is physicochemical. As to the method:
Hydrolytic stability was measured by monitoring the change in retention time of the intact surfactant by reverse-phase HPLC. The ½-life is defined as the time required to reach 50% degradation.

Data set [4] can be described thus: Acid and thermal degradation of the surfactant.
The target in data set [5] is T2, Myoglobin from horse heart digested with trypsin (Equus caballus, UniProt P68082).
T2 construct: Myoglobin from horse heart; from tissue; host or cells: horse heart
T2 sequence (P68082 2-154 limits assumed): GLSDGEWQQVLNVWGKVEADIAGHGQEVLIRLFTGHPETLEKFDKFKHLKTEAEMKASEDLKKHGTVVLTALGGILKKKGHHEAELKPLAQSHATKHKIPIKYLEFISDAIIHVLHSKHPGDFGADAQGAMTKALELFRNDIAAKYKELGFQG
Description: Myoglobin/Trypsin digest, HPLC peak area versus RapiGest control. The class given is biochemical. The conditions noted are these: 0.01% surfactant, trypsin 50:1, 20 minutes at 37° C.; ratio to RapiGest control, >1 = more digestion.

Data set [6] has as its target T3, Ovalbumin (albumin from chicken egg white) treated with PNGase F (Gallus gallus, UniProt P01012).
T3 construct: Ovalbumin (albumin from chicken egg white); purchased Sigma
T3 sequence (P01012 2-386 limits assumed): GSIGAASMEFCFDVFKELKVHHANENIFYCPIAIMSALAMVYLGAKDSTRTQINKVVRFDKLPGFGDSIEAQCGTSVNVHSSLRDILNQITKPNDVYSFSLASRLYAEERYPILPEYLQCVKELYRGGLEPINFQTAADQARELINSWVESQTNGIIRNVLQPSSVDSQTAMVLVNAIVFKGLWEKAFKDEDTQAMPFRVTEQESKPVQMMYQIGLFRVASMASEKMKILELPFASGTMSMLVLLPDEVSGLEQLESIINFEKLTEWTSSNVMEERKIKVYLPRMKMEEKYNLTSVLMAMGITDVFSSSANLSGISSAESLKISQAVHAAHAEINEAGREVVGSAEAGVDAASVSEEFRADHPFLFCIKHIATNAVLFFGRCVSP
Put plainly: Deglycosylation of ovalbumin with PNGase F (SDS-PAGE). The class given is biochemical. To be noted: 0.025% surfactant, 1 hour and 20 minutes at 37° C. The method, then: Surfactants described herein were evaluated as replacements for SDS in deglycolsylation protocols. Ovalbumin (albumin from chicken egg white) was selected as a model protein. Ovalbumin is a 44.3 kD glycoprotein with 1.4 kD carbohydrate units linked to the protein. […] Surfactant compound 3266 is acid-labile and it can be easily degraded, allowing for analysis of the protein and carbohydrate using mass spectrometric analysis.
Ovalbumin (Sigma) (45 μg) was dissolved in 0.025% 3266/5 mM DTT/25 mM ammonium bicarbonate (pH ˜8) and incubated at 95° C. for 5 minutes. In the control reaction, 3266 was replaced with SDS. Deglycosylation was initiated by adding 1.5μ units PNGase F (Sigma). After 1 hour and 20 minutes of incubation at 37° C., the reactions were terminated by incubation at 95° C. for 5 minutes and an aliquot from each reaction was resolved with SDS-PAGE. […] The analyses indicate that compound 3266 is equivalent to the deglycosylation enhancement found using SDS, while eliminating the deleterious effects of SDS in concomitant spectrometric and chromatographic analysis.

The next data set addresses trypsin (Sus scrofa, UniProt P00761). Put plainly: Trypsin activity measured as rate of BAEE cleavage. In kind it is biochemical. The conditions noted are these: standard digestion conditions. From the text: Compound 3116 can be used as an acid-labile surfactant to facilitate the solubilization and denaturation of a protein or peptide. Compound 3116 stabilizes proteases and enhances the proteolysis activity of trypsin. See FIG. 2, which illustrates the effect of compound 3116 on trypsin activity.

Entries after “also recorded” stand apart in the source; their conditions may differ.

Sequence of trypsin (P00761 9-231): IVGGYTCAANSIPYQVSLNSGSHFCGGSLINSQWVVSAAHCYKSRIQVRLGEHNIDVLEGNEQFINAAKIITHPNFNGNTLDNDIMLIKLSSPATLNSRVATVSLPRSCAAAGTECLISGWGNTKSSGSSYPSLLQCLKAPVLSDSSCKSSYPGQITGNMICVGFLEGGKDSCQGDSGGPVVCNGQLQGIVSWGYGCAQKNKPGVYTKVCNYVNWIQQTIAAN

For the molecule `CCCCCCCCCCOc1ccc(C(OCCc2ccc(N(CCCCS(=O)(=O)[O-])CCCCS(=O)(=O)[O-])cc2)(c2ccccc2)c2ccccc2)cc1.[Na+].[Na+]` [Compound 3214], in data set [1], the “surfactant Pk area/RG Pk area, Bacteriorhodopsin/Chymotrypsin digest” value amounted to 0.6. For the same molecule, in data set [2] (aqueous solution), the “solubility in aqueous solutions (concentration dissolved to)” value stood at 1%.
Consider `CCCCCCCCCCCCC(OC(=O)NCCCS(=O)(=O)O)c1ccc(OC)c(OC)c1` (stereo not drawn) [Compound 3266], for which the ½-life entry in data set [3] (surfactant conc. 0.025% in 50 mM ammonium bicarbonate), in data set [3] (surfactant conc. 0.25% in 50 mM ammonium bicarbonate) and in data set [3] (surfactant conc. 1% in 50 mM ammonium bicarbonate) was “>>” each time. For the same molecule, the “solubility (concentration dissolved to)” value in data set [2] (in 50 mM ammonium bicarbonate) was 2%. In addition, the “time to degradation in 0.5% TFA” value in data set [4] (0.5% TFA, 37° C. where stated, 0.1% solution for 3220 and 3266) was no more than 30 min. Besides, the “thermolability (in words)” value in data set [4] (3266: 5 minutes at 95° C.) is “not thermolabile”. Besides, the “surfactant Pk area/RG Pk area, Myoglobin/Trypsin digest” value in data set [5] turned out to be 1.2. Moreover, the “deglycosylation of ovalbumin by PNGase F (in words)” value in data set [6] is reported as “rapidly removed carbohydrate from ovalbumin; also recorded: transformed into a deglycosylated 42.9 kD form”.
Regarding `CCCCCCCCCCCCOS(=O)(=O)[O-].[Na+]` [SDS, sodium dodecyl sulfate, reference compound], in data set [6], the “deglycosylation of ovalbumin by PNGase F (in words)” value is “transformed into a deglycosylated 42.9 kD form”. For the same molecule, the “effect on trypsin activity (in words)” value at trypsin was “inhibited trypsin activity within 30 minutes”.
